Laboratory results reported in publication PMC8705818, “Experimental Characterization of the Interaction between the N-Terminal SH3 Domain of Crkl and C3G” (International Journal of Molecular Sciences, 2021).
Peptide text beside a SMILES is read from it. * marks the point of attachment. Dansyl = CN(C)c1cccc2c(S(=O)(=O)*)cccc12

Target: T1, N-SH3 D141A (Crkl) (Homo sapiens, UniProt P46109, D141A)
T1 construct: The construct encoding the N-SH3 domain of Crkl was subcloned in a pET28b+ plasmid vector; His-tag; made in house; host or cells: E. coli BL21
Assay: Stopped-flow displacement, N-SH3 D141A:dansyl-C3G277–296 complex
Format: binding
Conditions: Hepes 50 mM pH 7.0 + 20% w/v sucrose, 10 °C
Description: To further investigate this aspect, we resorted to performing displacement experiments, targeted to the direct calculation of microscopic dissociation rate constant koff. […] To test this and to slow down the diffusion of molecules, we repeated the experiment increasing the viscosity of the solution adding 20% w/v sucrose to the buffer Hepes 50 mM pH 7.0. Although the trace was satisfactorily fitted with a single-exponential equation, the koff calculated is 800 ± 30 s^−1, a value that is far beyond the resolution capability of the stopped-flow, a consistent part of the reaction occurring in the dead time of the instrument. Based on the calculated affinity of D141A variant for C3G in the absence of sucrose, this dramatic increase in koff might be accompanied by a strong increase in kon.
Kinetic binding experiments were performed on a single-mixing SX-18 stopped-flow instrument (Applied Photophysics), by mixing a constant concentration (0.5 μM) of C3G dansylated versus increasing concentrations of N-SH3 at 10 °C. Ionic strength dependence of wt N-SH3 was performed with concentrations ranging from 1 to 5 µM for 0 M NaCl condition and from 0.5 to 5 µM for 0.15 M, 0.3 M, 0.5 M and 1 M NaCl, buffer Hepes 50 mM pH 7.0. The excitation wavelength was 280 nm, and fluorescence was collected using a 455 nm cut-off filter. […]

T1 sequence (P46109 123-183 D141A limits assumed): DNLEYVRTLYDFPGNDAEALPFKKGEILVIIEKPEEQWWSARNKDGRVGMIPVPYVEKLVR

koff: 800 ± 30 s⁻¹
SMILES: CC(C)C[C@H](NC(=O)[C@H](C)NC(=O)[C@@H]1CCCN1C(=O)[C@@H]1CCCN1C(=O)[C@@H]1CCCN1C(=O)[C@H](CO)NC(=O)[C@H](CC(N)=O)NC(=O)[C@H](CC(=O)O)NC(=O)[C@@H](NC(=O)[C@@H](NS(=O)(=O)c1cccc2c(N(C)C)cccc12)C(C)C)C(C)C)C(=O)N1CCC[C@H]1C(=O)N1CCC[C@H]1C(=O)N[C@@H](CCCCN)C(=O)N[C@@H](CCCCN)C(=O)N[C@@H](CCCNC(=N)N)C(=O)N[C@@H](CCC(N)=O)C(=O)N[C@@H](CO)C(=O)N[C@@H](C)C(=O)N1CCC[C@H]1C(=O)N[C@@H](CO)C(=O)O [dansyl-C3G277–296] (Dansyl-VVDNSPPPALPPKKRQSAPS-OH)
